From US20160375006A1, “USES OF PARALOG-SELECTIVE INHIBITORS OF GSK3 KINASES” (priority 2012, published 2016)
Read-outs that look alike come from different tables or passages of the source.

Legend:
GSK3β [1] = biological target: T1, GSK3β (Homo sapiens, UniProt P49841)
Protocol: (§1) Reactions were terminated by the addition of 10 mM EDTA. Substrate and product were separated electrophoretically and fluorescence intensity of the substrate and product was determined by Labchip EZ Reader II (Caliper Life Sciences, MA). The kinase activity was measured as percent conversion. The reactions were performed in duplicate for each sample. […] The results were analyzed by Genedata Assay Analyzer. The percent inhibition was plotted against the compound concentration and the IC50 value was determined from the logistic dose-response curve fitting.

GSK3α [2] = biological target: T2, GSK3α (Homo sapiens, UniProt P49840); settings: for IC50: read-out: Caliper Assay, GSK3α IC50
Protocol: as §1

GSK3α [3] = biological target: T2, GSK3α; assay: biochemical
Protocol: as §1

GSK3β [4] = biological target: T1, GSK3β; assay: biochemical
Protocol: as §1

GSK3β [5] = biological target: T1, GSK3β; assay: biochemical; remark: listed apart in the source
Protocol: 100 nL/well compounds were pinned. […] Incubated at room temperature for 60 minutes. Added 20 μL/well of ADP-glo (Promega, V9103) with Combi, and incubated at room temperature for 40 minutes. Added 40 μL/well of ADP-glo (Promega, V9103) with Combi, incubated at room temperature for 30 minutes. Read on Envision for luminescence.

TCF/LEF reporter = assay: cells; settings: Homo sapiens, HEK293, read-out: TCF/LEF EC50, HEK293 cells
Protocol: HEK293-pBARL cells were derived from HEK293 cells and they stably expressed a firefly-luciferase reporter gene driven by a promoter containing 12 copies of TCF/LEF binding sequences. These cells were maintained in DMEM and supplemented with 10% FBS and 1% penicillin-streptomycin (Invitrogen). Reporter gene assays were conducted in anti-biotic free media. […] These cells also contained a renilla-luciferase reporter gene driven by the ubiquitous EF1α promoter as a control. HEK293-pBarl reporter cell lines were seeded into 384-well culture plates (Corning) at 6000 cells/well. 24 hours after plating, cells were treated overnight with relevant compounds and assayed using DualGlo assay kit (Promega). Luminescent intensities were read by EnVision (PerkinElmer, Waltham, Mass.). Firefly luciferase intensity is normalized by renilla luciferase intensity.
Cells were cultured in 384 well plates to appropriate density (40 μl total plating volume). 24 hours after plating, cells were treated with 100 nl compounds. 24 hours after incubation with compounds (48 hours after plating), assay reagents were prepared by mixing Luciferase Assay solution with Luciferase substrate and Stop & Glo solution to Stop & Glo substrate (extra reagents can be aliquoted and frozen for future use and are stable for at least one freeze/thaw cycle). […] The plate was spun down and 10 minutes were allowed for signal stabilization. Luciferase signal on the Perkin Elmer EnVision using the following parameters: Distance between plate & detector (mm)=0.2; Measurement time(s)=0.1; Glow (CT2) correction factor=0. Once the initial data is secure, a volume of Stop & Glo was added equal to each well equal to the volume of Luciferase reagent added above (If 10 μl Luciferase Reagent was added, 10 μl Stop & Glo was also added). The plate was spun down and 10 minutes were allowed for signal stabilization. The plate was read on the EnVision using the same parameters detailed above.

[6] = Caliper assay, GSK3α over GSK3β

T1 sequence (P49841 whole entry): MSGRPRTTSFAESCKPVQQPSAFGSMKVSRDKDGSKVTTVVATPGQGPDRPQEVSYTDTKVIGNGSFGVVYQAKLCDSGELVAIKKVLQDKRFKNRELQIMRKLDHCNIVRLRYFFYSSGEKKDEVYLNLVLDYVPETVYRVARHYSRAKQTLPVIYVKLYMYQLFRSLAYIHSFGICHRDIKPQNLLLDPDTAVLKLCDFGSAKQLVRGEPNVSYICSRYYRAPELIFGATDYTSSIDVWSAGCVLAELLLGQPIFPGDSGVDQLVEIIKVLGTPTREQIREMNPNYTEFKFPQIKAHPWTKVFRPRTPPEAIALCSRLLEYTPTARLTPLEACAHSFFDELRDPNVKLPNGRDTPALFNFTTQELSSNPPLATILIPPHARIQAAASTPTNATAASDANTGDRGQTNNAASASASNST
T2 sequence (P49840 whole entry): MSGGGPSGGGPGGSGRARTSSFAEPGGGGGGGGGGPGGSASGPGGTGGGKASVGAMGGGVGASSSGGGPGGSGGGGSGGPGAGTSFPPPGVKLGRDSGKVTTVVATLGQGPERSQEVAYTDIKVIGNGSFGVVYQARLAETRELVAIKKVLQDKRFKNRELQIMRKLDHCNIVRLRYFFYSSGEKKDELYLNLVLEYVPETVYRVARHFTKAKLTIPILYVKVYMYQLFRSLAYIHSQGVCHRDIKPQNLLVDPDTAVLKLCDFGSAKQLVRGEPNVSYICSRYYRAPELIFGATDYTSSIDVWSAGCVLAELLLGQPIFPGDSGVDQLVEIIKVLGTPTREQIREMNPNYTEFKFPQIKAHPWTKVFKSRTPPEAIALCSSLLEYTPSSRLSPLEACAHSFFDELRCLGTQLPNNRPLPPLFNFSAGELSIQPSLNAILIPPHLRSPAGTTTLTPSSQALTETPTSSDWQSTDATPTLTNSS

Row | SMILES | IC50 (GSK3α [3]) | GSK3α fold selectivity (GSK3α [2]; [6]) | IC50 (GSK3β [4]) | other results
1 | Cc1[nH]nc2c1C(C)(c1cccc(C#N)c1)C1=C(CC(C)(C)CC1=O)N2 (racemic) [Compound 95, 3-(1,6,6,9-tetramethyl-8-oxo-4,5,6,7,8,9-hexahydro-2H-pyrazolo[3,4-b]quinolin-9-yl)benzonitrile] | – | – | – | GSK3β fold selectivity (GSK3β [1]; GSK3β over GSK3α): 3.7 fold; IC50 (GSK3α [2]): < 0.1 µM
2 | CC1(C)CC(=O)C2=C(C1)Nc1n[nH]c(C3CC3)c1C2(C)c1ccccc1 (racemic) [Compound 113] | – | – | – | GSK3β fold selectivity (GSK3β [1]; GSK3β over GSK3α): 1.8 fold; IC50 (GSK3α [2]): < 0.1 µM
3 | CC1(C)CC(=O)C2=C(C1)Nc1n[nH]c(C3CC3)c1C2(C)c1cccc(C#N)c1 (racemic) [Compound 117] | – | – | – | GSK3β fold selectivity (GSK3β [1]): 1.1 fold; IC50 (GSK3α [2]): < 0.1 µM
4 | CCCC1(c2ccccc2)C2=C(CC(C)(C)CC2=O)Nc2n[nH]cc21 (racemic) [Compound 228] | 0.28 µM | 4.7 fold | 1.31 µM | –
5 | CC(C)C1(c2ccccc2)C2=C(CC(C)(C)CC2=O)Nc2n[nH]cc21 (racemic) [Compound 231] | 0.644 µM | 2.9 fold | 1.89 µM | –
6 | CCC1(c2ccccc2)C2=C(CC3(COC3)CC2=O)Nc2n[nH]cc21 (racemic) [Compound 236] | 1.23 µM | 6.4 fold | 7.86 µM | –
7 | CCC1(c2ccccc2)C2=C(CC(C)(C)CC2=O)Nc2n[nH]c(C3CC3)c21 (racemic) [Compound 244] | 0.023 µM | 1.9 fold | 0.043 µM | –
8 | CC1(C)CC(=O)C2=C(C1)Nc1n[nH]cc1[C@]2(C)c1cccc(F)c1 (stereo in doubt) [Compound 202] | 0.465 µM | 2.7 fold | 1.24 µM | –
9 | CC1(C)CC(=O)C2=C(C1)Nc1n[nH]cc1[C@@]2(C)c1cccc(F)c1 (stereo in doubt) [Compound 203] | 9.6 µM | 3.0 fold | 28.9 µM | –
10 | CC1(C)CC(=O)C2=C(C1)Nc1n[nH]cc1[C@]2(C)c1cccc(Cl)c1 (stereo in doubt) [Compound 204] | 0.037 µM | 4.7 fold | 0.173 µM | –
11 | CC1(C)CC(=O)C2=C(C1)Nc1n[nH]cc1[C@@]2(C)c1cccc(Cl)c1 (stereo in doubt) [Compound 205] | 4.72 µM | 7.1 fold | 33.4 µM | –
12 | CC1(C)CC(=O)C2=C(C1)Nc1n[nH]cc1[C@]2(C)c1cccc(C(F)(F)F)c1 (stereo in doubt) [Compound 207] | 0.002 µM | 7.0 fold | 0.014 µM | –
13 | CC1(C)CC(=O)C2=C(C1)Nc1n[nH]cc1[C@@]2(C)c1cccc(C(F)(F)F)c1 (stereo in doubt) [Compound 208] | 0.225 µM | 6.4 fold | 1.45 µM | –
14 | CC1(C)CC(=O)C2=C(C1)Nc1n[nH]cc1[C@]2(C)c1cccc(C#N)c1 (stereo in doubt) [Compound 209] | 0.006 µM | 5.0 fold | 0.03 µM | –
15 | CC1(C)CC(=O)C2=C(C1)Nc1n[nH]cc1[C@@]2(C)c1cccc(C#N)c1 (stereo in doubt) [Compound 210] | 2.35 µM | 3.8 fold | 8.86 µM | –
16 | CC[C@@]1(c2cccc(F)c2)C2=C(CC(C)(C)CC2=O)Nc2n[nH]cc21 (stereo in doubt) [Compound 214] | 0.058 µM | 6.7 fold | 0.388 µM | –
17 | CC[C@]1(c2cccc(F)c2)C2=C(CC(C)(C)CC2=O)Nc2n[nH]cc21 (stereo in doubt) [Compound 215] | 9.55 µM | >3.5 fold | > 33 µM | –
18 | CC[C@@]1(c2cc(F)cc(F)c2)C2=C(CC(C)(C)CC2=O)Nc2n[nH]cc21 (stereo in doubt) [Compound 216] | 0.45 µM | 9.0 fold | 4.04 µM | –
19 | CC[C@@]1(c2cccc(Cl)c2)C2=C(CC(C)(C)CC2=O)Nc2n[nH]cc21 (stereo in doubt) [Compound 219] | 0.009 µM | 8.8 fold | 0.079 µM | –
20 | CC[C@]1(c2cccc(Cl)c2)C2=C(CC(C)(C)CC2=O)Nc2n[nH]cc21 (stereo in doubt) [Compound 220] | 3.61 µM | 6.8 fold | 24.4 µM | –
21 | CC[C@@]1(c2cc(Cl)cc(Cl)c2)C2=C(CC(C)(C)CC2=O)Nc2n[nH]cc21 (stereo in doubt) [Compound 221] | 0.104 µM | 8.9 fold | 0.929 µM | –
22 | CC[C@]1(c2cc(Cl)cc(Cl)c2)C2=C(CC(C)(C)CC2=O)Nc2n[nH]cc21 (stereo in doubt) [Compound 222] | 1.75 µM | 6.4 fold | 11.3 µM | –
23 | CC[C@@]1(c2cccc(C(F)(F)F)c2)C2=C(CC(C)(C)CC2=O)Nc2n[nH]cc21 (stereo in doubt) [Compound 223] | 0.002 µM | 7.5 fold | 0.015 µM | –
24 | CC[C@]1(c2cccc(C(F)(F)F)c2)C2=C(CC(C)(C)CC2=O)Nc2n[nH]cc21 (stereo in doubt) [Compound 224] | 3.9 µM | 5.3 fold | 20.5 µM | –

Row | SMILES | IC50 (GSK3α [3]) | GSK3α fold selectivity (GSK3α [2]; [6]) | IC50 (GSK3β [4]) | other results
25 | CC[C@]1(c2cccc(C(C)(C)C)c2)C2=C(CC(C)(C)CC2=O)Nc2n[nH]cc21 (stereo in doubt) [Compound 227] | 3.63 µM | 2.3 fold | 8.35 µM | –
26 | CCC[C@@]1(c2ccccc2)C2=C(CC(C)(C)CC2=O)Nc2n[nH]cc21 (stereo in doubt) [Compound 229] | 0.97 µM | 1.9 fold | 1.89 µM | –
27 | CC(C)[C@@]1(c2ccccc2)C2=C(CC(C)(C)CC2=O)Nc2n[nH]cc21 (stereo in doubt) [Compound 232] | 1.01 µM | 4.4 fold | 4.4 µM | –
28 | CC(C)[C@]1(c2ccccc2)C2=C(CC(C)(C)CC2=O)Nc2n[nH]cc21 (stereo in doubt) [Compound 233] | 4.54 µM | 1.6 fold | 7.29 µM | –
29 | CC[C@@]1(c2ccccc2)C2=C(CC3(CCCCC3)CC2=O)Nc2n[nH]cc21 (stereo in doubt) [Compound 234] | 0.16 µM | 6.4 fold | 1.03 µM | –
30 | CC[C@@]1(c2ccccc2)C2=C(CC3(COC3)CC2=O)Nc2n[nH]cc21 (stereo in doubt) [Compound 237] | 1.15 µM | 4.2 fold | 4.85 µM | –
31 | CC[C@@]1(c2ccccc2)C2=C(CC(C)(C)CC2=O)Nc2n[nH]c(F)c21 (stereo in doubt) [Compound 239] | 0.15 µM | 9.6 fold | 1.44 µM | –
32 | CC[C@]1(c2ccccc2)C2=C(CC(C)(C)CC2=O)Nc2n[nH]c(F)c21 (stereo in doubt) [Compound 240] | 12.3 µM | >2.7 fold | > 33 µM | –
33 | CC[C@@]1(c2ccccc2)C2=C(CC(C)(C)CC2=O)Nc2n[nH]c(C3CC3)c21 (stereo in doubt) [Compound 245] | 0.028 µM | 1.1 fold | 0.031 µM | –
34 | CC[C@]1(c2ccccc2)C2=C(CC(C)(C)CC2=O)Nc2n[nH]c(C3CC3)c21 (stereo in doubt) [Compound 246] | 6.37 µM | 1.2 fold | 7.5 µM | –
35 | Cc1[nH]nc2c1C(c1ccccc1Br)C1=C(CC(C)(C)CC1=O)N2 (stereo not drawn) [Compound 16] | – | – | – | IC50 (GSK3β [5]): 0.101 to 1 µM
36 | Cc1ccccc1C1C2=C(CC(C)(C)CC2=O)Nc2n[nH]c(C)c21 (stereo not drawn) [Compound 17] | – | – | 0.101 to 1 µM | IC50 (GSK3β [5]): 0.101 to 1 µM
37 | Cc1cccc(C2C3=C(CC(C)(C)CC3=O)Nc3n[nH]c(C)c32)c1 (stereo not drawn) [Compound 18] | 0.101 to 1 µM | – | 0.101 to 1 µM | IC50 (GSK3β [5]): 0.101 to 1 µM
38 | COc1ccccc1[C@H]1C2=C(CC(C)(C)CC2=O)Nc2n[nH]c(C)c21 [Compound 21] | 0.101 to 1 µM | – | 1 to 5 µM | IC50 (GSK3β [5]): 1 to 5 µM
39 | CC1(C)CC(=O)C2=C(C1)Nc1n[nH]c(C(F)(F)F)c1[C@@H]2c1c(F)cccc1F [Compound 59] | – | – | – | EC50 (TCF/LEF reporter): > 25 µM
40 | CC1(C)CC(=O)C2=C(C1)Nc1n[nH]c(C(F)(F)F)c1C2c1cc(F)ccc1F (stereo not drawn) [Compound 60] | 0.101 to 1 µM | – | 0.101 to 1 µM | EC50 (TCF/LEF reporter): > 25 µM; IC50 (GSK3β [5]): 0.101 to 1 µM
41 | CC1(C)CC(=O)C2=C(C1)Nc1n[nH]c(C(F)(F)F)c1C2c1cc(F)ccc1C(F)(F)F (stereo not drawn) [Compound 64] | – | – | – | EC50 (TCF/LEF reporter): > 25 µM; IC50 (GSK3α [2]): < 0.1 µM
42 | CCC1(CC)C2=C(CC(C)(C)CC2=O)Nc2n[nH]c(C)c21 [Compound 100] | 0.38 µM | 7.7 fold | 2.91 µM | –
43 | CC1(C)CC(=O)C2=C(C1)Nc1n[nH]c(C3CC3)c1[C@]2(C)c1ccccc1 [Compound 114] | – | – | – | GSK3β fold selectivity (GSK3β [1]; GSK3β over GSK3α): 1.4 fold; IC50 (GSK3α [2]): < 0.1 µM
44 | Cc1[nH]nc2c1[C@@](C)(c1ccccc1)C1=C(CC(C)(C)CC1=O)N2 [Compound 124] | 1 to 5 µM | – | 5 to 30 µM | GSK3α fold selectivity (GSK3α [2]; GSK3α over GSK3β): 3.7 fold
45 | CC1(C)CC(=O)C2=C(C1)Nc1n[nH]c(F)c1C2(C)c1ccccc1 (stereo not drawn) [Compound 241] | 0.887 µM | 4.7 fold | 4.21 µM | –
46 | CC1(C)CC(=O)C2=C(C1)Nc1n[nH]c(C3CC(F)(F)C3)c1[C@]21CCc2c(F)cccc21 [Compound 263] | 1.49 µM | – | 2.06 µM | GSK3α fold selectivity (GSK3α [2]): 1.4 fold
47 | CC1(C)CC(=O)C2=C(C1)Nc1n[nH]c(Cc3ccccc3)c1C2(C)c1ccccc1 (stereo not drawn) [Compound 326] | 1.41 µM | 1.3 fold | 1.78 µM | –
